# In patent US11326183B2, “VCN enhancer compositions and methods of using the same” (priority 2016, dated 2022):
# “Also recorded” adds a separate entry of the source.
# Assays:
# hCD34+ cells [1] = assay: VCN of pooled colonies after 14 day MethoCult culture, staurosporine and/or PGE2; assay type: cell-based, human; conditions: for VCN compared to controls or other treatments, in words: mean VCN
# Description: (§1) Washed cells were resuspended in 200 μL SCGM and then transferred to 3 mL aliquots of cytokine-supplemented methylcellulose (for example, Methocult M4434 Classic). 1.1 mL was then transferred to parallel 35-mm tissue culture dishes using a blunt 16-gauge needle. Dishes were maintained in a standard humidified tissue culture incubator for 12-16 days and colonies were scored for size, morphology, and cellular composition. Individual colonies were then picked for subsequent VCN analysis or the contents of an entire 35-mm dish were pooled and then subject to VCN analysis.
# Cells were then transduced with LVV and cultured in the presence of protamine sulfate (standard), PGE2 or vehicle. After transduction, cells were washed and cultured in MethoCult for 14 days.
# After a 14 day MethoCult culture, pooled colonies were collected and analyzed for VCN. Mean VCN data is shown. […] FIG. 8.
# [2] = system: long-term NSG repopulating cells; assay: VCN of bone marrow from NSG mice 4 months post-transplant of transduced hCD34+ cells; assay type: in vivo
# Text: (§2) HSCs transduced with lentivirus were transplanted into NOD/SCID Gamma (NSG) mice to assess the effect of candidate compounds on viral transduction of human long-term hematopoietic stem cells. Transduced cells were washed and resuspended in phosphate-buffered saline (PBS) and transplanted into the tail vein of sub-myeloablated adult NSG mice, with minimal residual toxicity. Mice were housed in a pathogen-free environment per standard IACUC animal care guidelines. At 4 months post-transplant bone marrow (BM) was harvested from both femurs and analyzed for both VCN and engraftment of human cells by staining with an anti-hCD45 antibody (BD #561864) followed by flow cytometry analysis.
# (§3) Following transduction, cells were washed and injected into busulfan-treated NSG mice. Aliquots of the drug product were retained for in vitro analysis. […] FIG. 4A. […] FIG. 4A. After 4 months in vivo, NSG mice were sacrificed and BM was collected and analyzed for VCN of the engrafted hCD34+ cells. There was an overall decrease in mean VCNs across all groups in vivo as compared to the drug product VCNs, indicating higher transduction of short-term progenitors rather than long-term stem cells. FIG. 4B.
# [3] = system: bulk hCD34+ cells and CD34+CD38LoCD90+CD45RA- phenotypic stem cells; assay: Single-cell PCR assay of transduction efficiency in bulk and CD34+CD38LoCD90+CD45RA- cells; assay type: cell-based, human; conditions: 400 nM or 800 nM staurosporine 2 hours
# Description: (§4) Washed cells were resuspended in 2 mL Stem Cell Growth Medium (SCGM)+cytokines and transferred to a standard 12-well non-adherent tissue culture plate. Cells were maintained for an additional 6 days in a standard humidified tissue culture incubator (5% CO2) and then subjected to Vector Copy Number (VCN) analysis or single-cell nested PCR to determine transduction efficiency. Both VCN and the single-cell nested PCR assay were performed with qPCR using primers and probes specific to both the vector and an endogenous control gene. VCN was determined by dividing the amount of vector signal by the amount of the endogenous control gene. For the single-cell nested PCR assay, wells that contained a cell positive for the endogenous control gene and wells that contained a marked cell positive for both the vector and the endogenous control gene were enumerated, and the proportion of marked cells, or transduction efficiency, was calculated.
# Thawed hCD34+ cells were stained with antibodies against cell surface markers for phenotypic HSCs (CD34^+CD38^LoCD90^+CD45^RA− cells) and then sorted using a Sony Cell Sorter. […] After culture, the cells were then single-cell sorted into 96 well plates and analyzed via the single-cell PCR assay to assess transduction efficiency, the percent lentiviral vector positive cells. […]
# [4] = system: transplanted hCD34+ cells; assay: Engraftment and differentiation of transplanted hCD34+ cells in NSG mice (flow cytometry of BM); assay type: in vivo; conditions: BM four months post-transplant
# Text: as §2
# Cells were stained with an antibody cocktail recognizing various cell surface markers (CD45, CD33, CD3, CD19) and analyzed via flow cytometry. […] FIG. 5B.
# hCD34+ grafts = assay: Non-restrictive insertion site analysis (polyclonality)
# Description: Identified insertion sites were mapped within gene regions to examine the lentiviral integration profile. […] Insertion sites were also quantified as the percent of total reads. The top 10 clones are shown for each treatment.
# Insertion sites were pooled for each group and quantified as the percent of total reads. The top 10 clones are shown for each treatment.
# hCD34+ cells [5] = assay: BlaM (BLAM) assay for assessment of viral entry; assay type: cell-based, human
# Description: Cells were transduced for 2 hours in the presence of F108, PGE2, and a virus encoding a β-lactamase-Vpr fusion protein. Following transduction, cells were washed and incubated with a fluorescent β-lactamase substrate for 30-60 minutes. β-lactamase cleavage was analyzed by flow cytometry: uncleaved substrate is GFP^+, and cleavage of the fluorescent β-lactamase results in a Pacific Blue^+ signal. β-lactamase cleavage indicates lentivirus entry into the cell. See also, Cavrois et al. Nature Biotechnology. 2002.
# Cells transduced for 2 hours were then subjected to staining and flow analysis for the BLAM assay to quantify viral entry. […]. FIGS. 1B and 1C.
# hCD34+ cells [6] = assay: Transgene (LNGFR) expression by flow cytometry; assay type: cell-based, human; conditions: 200 nM staurosporine 2 hours, 24 hour transduction
# hCD34+ cells [7] = assay: Vector copy number (VCN) analysis of hCD34+ cells transduced with LVV after staurosporine treatment; assay type: cell-based, human
# Description: as §4, §1
# Cells transduced for 2 hours were then subjected to staining and flow analysis for the BLAM assay to quantify viral entry. […] FIG. 1A. […] FIGS. 1B and 1C.
# These seven cell lots had been prospectively classified as low, medium, or high transducing cell lots. A low transducing cell lot is defined here as having a mean VCN <0.5 in vehicle-treated transductions, a medium transducing cell lot is defined here as having a mean 0.5<VCN<1, and a high transducing cell lot is defined here as having a mean VCN>1. […] This property of leveling average VCN among cell lots with different transducibility could aid in controlling variability between cell lots and normalizing drug product VCNs.
# as §3
# hCD34+ cells [8] = assay: Methylcellulose assay for CFC formation (stem cell potential); assay type: cell-based, human
# Description: as §1
# For the 2 hour incubation, cells were subsequently washed and cultured in transduction media for the remaining 24 hours. Following the cultures, cells were plated in methylcellulose for CFC formation. […] FIG. 2B. […] FIG. 2A.
compound,measurement,setting,value
"CCCCC[C@H](O)/C=C/[C@H]1[C@H](O)CC(=O)[C@@H]1C/C=C\CCCC(=O)O [PGE2, prostaglandin E2]","VCN compared to controls or other treatments, in words",hCD34+ cells [1],increased VCN compared to controls
"CN[C@@H]1C[C@H]2O[C@@](C)([C@@H]1OC)n1c3ccccc3c3c4c(c5c6ccccc6n2c5c31)C(=O)NC4 [staurosporine, Staurosporine]",fold improvement in mean in vivo VCN of BM relative to vehicle,[2]; 400 nM staurosporine prior to transduction,3 fold
same,fold improvement in mean in vivo VCN of BM relative to vehicle,[2]; 800 nM staurosporine prior to transduction,4 fold
same,transduction efficiency (percent lentiviral vector positive cells) versus standard transduction,[3],increased transduction efficiency compared to standard transduction conditions; also recorded: higher than the transduction efficiency of the cells transduced using the standard transduction protocol
same,effect of staurosporine treatment on engraftment,[4]; 400 nM or 800 nM,does not affect engraftment; also recorded: no statistically significant effect
same,proportion of myeloid (CD33+) or lymphoid (CD3+ or CD19+) cells / differentiation capabilities,[4]; 400 nM or 800 nM,is maintained; also recorded: no difference
same,level of engraftment of hCD34+ cells,"[4]; all groups (vehicle, 400 nM, 800 nM staurosporine)",30-40%
same,clonality of engrafted cells (insertion site profile),"hCD34+ grafts; BM four months post-transplant, top 10 clones",polyclonal insertion site profile similar to vehicle treated cells
same,lentiviral integration profile of transduced cells,"hCD34+ grafts; pre-transplant drug product, insertion sites mapped within gene regions",did not appear to skew
same,clonality of pre-transplantation samples,"hCD34+ grafts; pre-transplant drug product, top 10 clones as percent of total reads",polyclonality
same,increase in the amount of cells containing LVV compared to vehicle-treated controls,"hCD34+ cells [5]; 200 nM staurosporine 2 hours, washed, 2 hour transduction",~50%
same,"percentage of cells containing vector by BLAM assay, fold higher than controls","hCD34+ cells [5]; staurosporine-treated hCD34+ cells, two MOIs",1.5 fold
same,fold increase in transgene expression (LNGFR),hCD34+ cells [6],1.5 fold
same,fold increase in (mean) VCN versus control,"hCD34+ cells [7]; 200 nM staurosporine 2 hours, washed, 24 hour transduction",2 fold
same,"mean VCN of the drug product, in words",hCD34+ cells [7]; 400 nM staurosporine 2 hours,did not significantly improve the mean VCN
same,"mean VCN of the drug product, in words",hCD34+ cells [7]; 800 nM staurosporine,VCN enhancement
same,fold improvement in mean VCN of the drug product (pooled colonies) versus vehicle,hCD34+ cells [7]; 800 nM staurosporine 2 hours,approximately 2 fold
same,fold increase in average VCN,"hCD34+ cells [7]; 800 nM staurosporine 2 hours, high transducing cell lots (mean VCN>1)",1.2 fold
same,fold increase in average VCN,"hCD34+ cells [7]; 800 nM staurosporine 2 hours, low transducing cell lots (mean VCN <0.5)",2.3 fold
same,fold increase in average VCN,"hCD34+ cells [7]; 800 nM staurosporine 2 hours, medium transducing cell lots (0.5<VCN<1)",1.5 fold
same,effect of increasing staurosporine concentration on VCN enhancement,"hCD34+ cells [7]; 200, 400, 800 nM, high transducing cell lots",plateaus
same,effect of increasing staurosporine concentration on mean VCN,"hCD34+ cells [7]; 200, 400, 800 nM, low and medium transducing cell lots",trend for increasing mean VCN
same,colony formation ability,"hCD34+ cells [8]; 2 hour exposure, 200 nM, 400 nM or 800 nM",retain colony formation ability and do not significantly differ from control-treated cells; also recorded: did not affect the ability of the hCD34^+ cells to form colonies
same,colony-forming potential,"hCD34+ cells [8]; 24 hour exposure, 800 nM",few hCD34^+ cells that retain colony-forming potential
same,decrease in CFC formation,"hCD34+ cells [8]; 24 hour exposure, lower doses (200 nM, 400 nM)",> 50%
same,reduction in CFC formation,"hCD34+ cells [8]; 24 hours exposure, 3 different concentrations of staurosporine",> 50%
same,"VCN compared to controls or other treatments, in words",hCD34+ cells [1],increased VCN compared to controls; also recorded: outperforms PGE2 addition
same,fold increase in VCN,hCD34+ cells [1]; staurosporine two hours before transduction,3 fold
